Here are results for four compounds from patent US10946016B2, “Solid forms of an epidermal growth factor receptor kinase inhibitor” (Celgene CAR LLC, priority 2012, dated 2021).

“Also recorded” adds a separate entry of the source.

A short description of series [1]: TGA of dehydrated material after standing on the bench (water pick-up). Type of series: physicochemical. The conditions noted are these: heated to 115° C., then on the bench ca. 1 hour at ambient. The procedure:
To test whether Form H picks up water after desolvating/dehydrating the material by heating to 115° C., a further test was carried out whereby Form H was heated to 115° C. in a TGA pan. The sample was then removed from the TGA pan and allowed to sit on the bench for ca. 1 hour. After 1 hour, another TGA was carried out up to 115° C. […] (FIG. 51).

The nature of series [2]: XRPD after heating or drying (solid form conversion). Type of series: physicochemical. Conditions: heated to 115° C. The procedure: X-ray powder diffraction (XRPD) analysis was carried out on a Siemens D5000, scanning the samples between 3 and 30 or 50° 2-theta. For samples <100 mg, ca. 5-10 mg of sample was gently compressed onto a glass slide which fitted into the sample holder. For samples >100 mg, ca. 100 mg of sample was gently compressed into a plastic sample holder, so that the sample surface was smooth and just above the level of the sample holder. Measurements were made as follows: In order to determine the relationship between Forms A and B, a sample of Form B was heated to 120° C. and then XRPD analysis was carried out. […] To determine whether Form C remains the same after losing the solvent present, a sample of Form C was heated to 120° C. (i.e., just past the temperature at which the solvent is removed) and then XRPD analysis was carried out. […] In order to determine whether Form E remains the same after losing the solvent present, a sample of Form E was heated to 120° C. (i.e., just past the temperature at which the solvent is lost) and then XRPD analysis was carried out. […] In order to determine whether Form F remains the same after losing the solvent present, a sample of Form F was heated to 120° C. (i.e., just past the temperature at which the solvent is lost) and then XRPD analysis was carried out. […] To examine whether Form H changes to Form A after heating to 115° C. (point after the solvent loss), the Form H material was heated to 115° C. and XRPD analysis and DSC analysis were then carried out. […] The DSC analysis (FIG. 49) indicated overlapping endotherms between ca. 115-135° C., followed by an exotherm at peak 143.9° C., likely indicating a polymorphic transition. A final endotherm was present at onset 202.7° C. (peak 206.6° C.) corresponding with the Form A melt.

The test system of series [3] is mutant EGFR kinase. As to the kind of experiment: Enzymatic and cellular assays of EGFR kinase inhibition. The format is biochemical.
Series [4] has as its system human non-small cell lung cancer cell. The series can be described thus: Non-small cell lung cancer cell proliferation in vivo.
Series [5] has the same test system. The series can be described thus: Non-small cell lung cancer cell proliferation in vitro. The format is cell-based.
Series [6] is described as follows: Stability at 40° C./75% RH for 1 week and 2 weeks (XRPD and HPLC). The conditions noted are these: open container. Type of series: physicochemical. The procedure: Samples of each form were exposed to an environment of 40° C./75% RH for 1 week and 2 week periods to determine stability. Resulting solids were analysed by XRPD and HPLC to establish if any changes had occurred.

The nature of series [7]: Dynamic vapour sorption (DVS) with post DVS XRPD. Type of series: physicochemical. The procedure:
For dynamic vapour sorption (DVS), approximately 10 mg of sample was placed into a wire mesh vapour sorption balance pan and loaded into a DVS-1 dynamic vapour sorption balance by Surface Measurement Systems. The sample was subjected to a ramping profile from 20-90% relative humidity (RH) at 10% increments, maintaining the sample at each step until a stable weight had been achieved (99.5% step completion). After completion of the sorption cycle, the sample was dried using the same procedure, but all the way down to 0% RH and finally taken back to the starting point of 20% RH. The weight change during the sorption/desorption cycles were plotted, allowing for the hygroscopic nature of the sample to be determined.

Series [8] can be described thus: Competitive slurries at ambient and 60° C. (polymorph stability studies). The format is physicochemical. Conditions: slurrying at ambient and 60° C. On the procedure:
The results from the competitive slurries carried out at ambient (ca. 22° C.) and 60° C. are tabulated below.

Series [9] is described as follows: Aqueous solubility: slurries in deionised water, HPLC. The format is physicochemical. Conditions: slurry in deionised water shaken ca. 24 hours. The procedure: Slurries of all each polymorphic form were created in deionised water and shaken for ca. 24 hours. The resulting solid was then analysed by HPLC to determine the concentration of material dissolved.
Series [10] can be described thus: 7 day stability studies of Form I at 25° C., 80° C., 40° C./75% RH (open and closed). Type of series: physicochemical. On the procedure:
Approximately 15 mg of Form I was placed separately into vials and then exposed to 25° C., 80° C. and 40° C./75% RH environments (open and closed vials) for 1 week to determine stability. The resulting solids were analysed by XRPD and HPLC to establish if any changes had occurred. Results are presented in Tables 2 and 3 and FIGS. 62 and 63.

The nature of series [11]: Thermodynamic solubility studies at various pH. The format is physicochemical. Conditions: for solubility at 24 h: thermodynamic from solid. The procedure:
Slurries of Form I were created in media of various pH (pH 1; pH 3; pH 4.5 and pH 6.6) and shaken for ca. 24 hours. After 24 hours, the slurries were filtered and the solution analysed by HPLC in order to determine the solubility at the various pH levels. For the buffer solutions, KCl/HCl was used for pH 1 and citrate/phosphate combinations for pH 3, 4.5 and 6.6 (10 mM). The pH of the solutions was also measured prior to HPLC analysis. XRPD analysis was carried out on the remaining solids after 24 hours of shaking.

The mark [12] stands for this setting: closed container, 40° C./75% RH.

`C=CC(=O)Nc1cccc(Nc2nc(Nc3ccc(N4CCN(C(C)=O)CC4)cc3OC)ncc2C(F)(F)F)c1` [Form H, N-(3-(2-(4-(4-acetylpiperazin-1-yl)-2-methoxyphenylamino)-5-(trifluoromethyl)pyrimidin-4-ylamino)phenyl)acrylamide]: in series [1], the “water pick-up of desolvated/dehydrated material” value is listed as “picked up water upon standing at ambient conditions”. The XRPD after heating entry in series [2] is listed as “still corresponded with Form H, with some loss in crystallinity”.
For `C=CC(=O)Nc1cccc(Nc2nc(Nc3ccc(N4CCN(C(C)=O)CC4)cc3OC)ncc2C(F)(F)F)c1` [Compound 1, N-(3-(2-(4-(4-acetylpiperazin-1-yl)-2-methoxyphenylamino)-5-(trifluoromethyl)pyrimidin-4-ylamino)phenyl)acrylamide], the “selectivity for mutant EGFR as compared to wild-type EGFR” value in series [3] is “selective inhibitor of at least one mutation of EGFR”. Moreover, the “inhibition of mutant EGFR kinase” value in series [3] (enzymatic and cellular assays) is given as “selective covalent, irreversible inhibition of mutant EGFR kinase”. Besides, the “inhibition of cell proliferation” value in series [4] and in [5] was “inhibit human non-small cell lung cancer cell proliferation” in each case.
For `C=CC(=O)Nc1cccc(Nc2nc(Nc3ccc(N4CCN(C(C)=O)CC4)cc3OC)ncc2C(F)(F)F)c1` [Form A, N-(3-(2-(4-(4-acetylpiperazin-1-yl)-2-methoxyphenylamino)-5-(trifluoromethyl)pyrimidin-4-ylamino)phenyl)acrylamide], in [6] (1 week), the “HPLC purity after storage” value is on record as “ca. 97.5%” and the “XRPD analysis after storage” value is “still be consistent with Form A, with some loss in crystallinity”. Further, in [6] (2 week), the “HPLC purity after storage” value is given as “ca. 96.3%” and the “XRPD analysis after storage” value is “still be consistent with Form A, however, it became poorly crystalline”. Also, in [7], the “Post DVS XRPD (solid form)” value is given as “remained Form A” and the “hygroscopicity (DVS)” value is “non-hygroscopic”. Further, the DVS water uptake in series [7] (between 20 and 70% RH) stood at 0.87%. Moreover, in [8], the relative polymorph stability result is listed as “likely the more stable form in comparison with Form B”. Further, in [9], the “detection by HPLC analysis for the aqueous solubility” value is listed as “could not be detected”. For the same compound, the aqueous solubility result in series [9] (assessment in words) is reported as “poor”.
For `C=CC(=O)Nc1cccc(Nc2nc(Nc3ccc(N4CCN(C(C)=O)CC4)cc3OC)ncc2C(F)(F)F)c1` [Form I, N-(3-(2-(4-(4-acetylpiperazin-1-yl)-2-methoxyphenylamino)-5-(trifluoromethyl)pyrimidin-4-ylamino)phenyl)acrylamide], the “Post DVS XRPD (solid form)” value in series [7] is listed as “remained as Form I”. In addition, the “hygroscopicity (DVS)” value in [7] is given as “relatively non-hygroscopic”. The DVS mass uptake entry in [7] (Cycle 1, sorption 20-90% RH) is reported as “ca. 0.66%”. Besides, the “DVS rapid mass loss” value in series [7] (Cycle 2, desorption, between 10-0% RH) is “ca. 2.7%”. Moreover, the DVS mass decrease entry in series [7] (Cycle 2, desorption, between 90-10% RH) is on record as “ca. 1.2%”. Besides, the DVS moisture uptake result in [7] (Cycle 3, sorption, between 0-20% RH) is listed as “ca. 2.8%”. Besides, the “Purity after 1 week” value in series [10] (closed container, 25° C.) stood at 99.4%; in [10] (setting [12]), 99.3%; in [10] (closed container, 80° C.) it was 99.2%; in series [10] (open container, 25° C.), 98.7%; in [10] (open container, 40° C./75% RH) it was 98.9%; in series [10] (open container, 80° C.), 98.5%. In addition, the “XRPD Analysis after 1 week” value in [10] (closed container, 25° C.) is “Form I”; in series [10] (setting [12]) it was “Form I; also recorded: (some loss in crystallinity)”; in series [10] (closed container, 80° C.), “Form I; also recorded: (some loss in crystallinity)”; in [10] (open container, 25° C.) it was “Form I”; in series [10] (open container, 40° C./75% RH), “Form I”; in series [10] (open container, 80° C.) it was “Form I; also recorded: (some loss in crystallinity)”. For the same compound, the solubility at 24 h in series [11] (aqueous buffer, buffer pH 3 (citrate/phosphate), pH prior to analysis 2.26, ca. 24 hours) was 23 µg/mL; in [11] (aqueous buffer, buffer pH 4.5 (citrate/phosphate), pH prior to analysis 3.38, ca. 24 hours) it was 2 µg/mL; in series [11] (simulated gastric fluid, buffer pH 1 (KCl/HCl), pH prior to analysis 0.95, ca. 24 hours) it was 3270 µg/mL. Also, the Solubility entry in series [11] (buffer pH 6.6 (citrate/phosphate), pH prior to analysis 5.04, ca. 24 hours) is reported as “Not detected”. The “XRPD of solids remaining after thermodynamic solubility experiment” value in series [11] (pH 1, after 24 hours) is “mixture of Form I and possibly the HCl salt”; in series [11] (pH 6.6, 4.5 and 3.0, after 24 hours), “remained as Form I”.

As usually defined, the solubility is the dissolved amount per volume that the medium holds.
